Measured values reported in PMC6394493 (Cancer Chemotherapy and Pharmacology, 2018).

Assay: Safety assessment: adverse events
Type: in vivo, Japanese patients
Excerpt: Safety assessments consisted of monitoring and recording of all AEs, including laboratory abnormalities and vital signs. DLTs were defined as an AE or a laboratory abnormality assessed as related to the study drug and occurring within the first 28 days of treatment (Cycle 1), as defined in Supplemental Table S1.

[1] = bid 400 mg N = 8, regardless of study drug relationship
[2] = qd 400 mg (n = 3), regardless of study drug relationship
[3] = qd 800 mg (n = 3), regardless of study drug relationship
[4] = qd 1000 mg (n = 8), regardless of study drug relationship

Cn1c(=O)n(-c2ccc(C(C)(C)C#N)cc2)c2c3cc(-c4cnc5ccccc5c4)ccc3ncc21 [BEZ235]
study drug-related SAE (1000 mg qd): grade 2 colitis
patients requiring dose reduction in Cycle 2 (1200 mg qd): two out of six
patients requiring dose interruption due to AEs (1400 mg qd): six
patients requiring dose reduction in early cycles (1400 mg qd): three
study drug-related SAE (1400 mg qd): grade 2 Pneumocystis jiroveci pneumonia
AEs Total, All grades [1]: 8 (100.0) n (%)
AEs Total, Grade ¾ [1]: 7 (87.5) n (%)
Alanine aminotransferase increased, All grades [1]: 4 (50.0) n (%)
Alanine aminotransferase increased, Grade ¾ [1]: 0 n (%)
Anxiety, All grades [1]: 2 (25.0) n (%)
Anxiety, Grade ¾ [1]: 0 n (%)
Aspartate aminotransferase increased, All grades [1]: 4 (50.0) n (%)
Aspartate aminotransferase increased, Grade ¾ [1]: 1 (12.5) n (%)
Blood alkaline phosphatase increased, All grades [1]: 2 (25.0) n (%)
Blood alkaline phosphatase increased, Grade ¾ [1]: 0 n (%)
Blood creatinine increased, All grades [1]: 3 (37.5) n (%)
Blood creatinine increased, Grade ¾ [1]: 0 n (%)
Cancer pain, All grades [1]: 3 (37.5) n (%)
Cancer pain, Grade ¾ [1]: 2 (25.0) n (%)
Cheilitis, All grades [1]: 3 (37.5) n (%)
Cheilitis, Grade ¾ [1]: 0 n (%)
Decreased appetite, All grades [1]: 7 (87.5) n (%)
Decreased appetite, Grade ¾ [1]: 1 (12.5) n (%)
Diarrhea, All grades [1]: 7 (87.5) n (%)
Diarrhea, Grade ¾ [1]: 1 (12.5) n (%)
Dry skin, All grades [1]: 4 (50.0) n (%)
Dry skin, Grade ¾ [1]: 0 n (%)
Dysphagia, All grades [1]: 3 (37.5) n (%)
Dysphagia, Grade ¾ [1]: 0 n (%)
Fatigue, All grades [1]: 5 (62.5) n (%)
Fatigue, Grade ¾ [1]: 1 (12.5) n (%)
Gamma-glutamyltransferase increased, All grades [1]: 2 (25.0) n (%)
Gamma-glutamyltransferase increased, Grade ¾ [1]: 0 n (%)
Haemoglobin decreased, All grades [1]: 4 (50.0) n (%)
Haemoglobin decreased, Grade ¾ [1]: 1 (12.5) n (%)
Hyperkalaemia, All grades [1]: 2 (25.0) n (%)
Hyperkalaemia, Grade ¾ [1]: 0 n (%)
Hypoalbuminaemia, All grades [1]: 4 (50.0) n (%)
Hypoalbuminaemia, Grade ¾ [1]: 1 (12.5) n (%)
Hyponatraemia, All grades [1]: 2 (25.0) n (%)
Hyponatraemia, Grade ¾ [1]: 1 (12.5) n (%)
Insomnia, All grades [1]: 4 (50.0) n (%)
Insomnia, Grade ¾ [1]: 0 n (%)
Lymphopenia, All grades [1]: 4 (50.0) n (%)
Lymphopenia, Grade ¾ [1]: 2 (25.0) n (%)
Malaise, All grades [1]: 2 (25.0) n (%)
Malaise, Grade ¾ [1]: 1 (12.5) n (%)
Nausea, All grades [1]: 7 (87.5) n (%)
Nausea, Grade ¾ [1]: 0 n (%)
Pyrexia, All grades [1]: 2 (25.0) n (%)
Pyrexia, Grade ¾ [1]: 0 n (%)
Rash, All grades [1]: 4 (50.0) n (%)
Rash, Grade ¾ [1]: 0 n (%)
Stomatitis, All grades [1]: 5 (62.5) n (%)
Stomatitis, Grade ¾ [1]: 0 n (%)
Thrombocytopenia, All grades [1]: 5 (62.5) n (%)
Thrombocytopenia, Grade ¾ [1]: 2 (25.0) n (%)
Urinary tract infection, All grades [1]: 2 (25.0) n (%)
Urinary tract infection, Grade ¾ [1]: 0 n (%)
Vomiting, All grades [1]: 4 (50.0) n (%)
Vomiting, Grade ¾ [1]: 0 n (%)
study drug-related SAE (bid dosing group, one patient): grade 4 diarrhea
patients with Grade 3 or 4 AEs (bid dosing, seven patients): 87.5%
study drug discontinuation due to AEs (bid group, one patient): 12.5%
grade 3 or 4 lymphopenia suspected to be study drug-related (bid group, two patients): 25.0%
grade 3 or 4 thrombocytopenia suspected to be study drug-related (bid group, two patients): 25.0%
deaths during the study period (including a 30-day follow-up, qd and bid): No patient died
AEs Total, All grades [2]: 3 (100.0) n (%)
AEs Total, Grade ¾ [2]: 2 (66.7) n (%)
Alanine aminotransferase increased, All grades [2]: 2 (66.7) n (%)
Alanine aminotransferase increased, Grade ¾ [2]: 0 n (%)
Blood alkaline phosphatase increased, All grades [2]: 1 (33.3) n (%)
Blood alkaline phosphatase increased, Grade ¾ [2]: 0 n (%)
Cancer pain, All grades [2]: 2 (66.7) n (%)
Cancer pain, Grade ¾ [2]: 1 (33.3) n (%)
Decreased appetite, All grades [2]: 2 (66.7) n (%)
Decreased appetite, Grade ¾ [2]: 0 n (%)
Diarrhea, All grades [2]: 2 (66.7) n (%)
Diarrhea, Grade ¾ [2]: 0 n (%)
Dysgeusia, All grades [2]: 0 n (%)
Dysgeusia, Grade ¾ [2]: 0 n (%)
Fatigue, All grades [2]: 1 (33.3) n (%)
Fatigue, Grade ¾ [2]: 0 n (%)
Leukopenia, All grades [2]: 0 n (%)
Leukopenia, Grade ¾ [2]: 0 n (%)
Lymphopenia, All grades [2]: 2 (66.7) n (%)
Lymphopenia, Grade ¾ [2]: 2 (66.7) n (%)
Nausea, All grades [2]: 3 (100.0) n (%)
Nausea, Grade ¾ [2]: 0 n (%)
Neutropenia, All grades [2]: 0 n (%)
Neutropenia, Grade ¾ [2]: 0 n (%)
Pyrexia, All grades [2]: 1 (33.3) n (%)
Pyrexia, Grade ¾ [2]: 0 n (%)
Rash, All grades [2]: 1 (33.3) n (%)
Rash, Grade ¾ [2]: 0 n (%)
Stomatitis, All grades [2]: 2 (66.7) n (%)
Stomatitis, Grade ¾ [2]: 0 n (%)
Thrombocytopenia, All grades [2]: 0 n (%)
Thrombocytopenia, Grade ¾ [2]: 0 n (%)
Vomiting, All grades [2]: 2 (66.7) n (%)
Vomiting, Grade ¾ [2]: 0 n (%)
AEs Total, All grades [3]: 3 (100.0) n (%)
AEs Total, Grade ¾ [3]: 1 (33.3) n (%)
Alanine aminotransferase increased, All grades [3]: 0 n (%)
Alanine aminotransferase increased, Grade ¾ [3]: 0 n (%)
Blood alkaline phosphatase increased, All grades [3]: 0 n (%)
Blood alkaline phosphatase increased, Grade ¾ [3]: 0 n (%)
Cancer pain, All grades [3]: 2 (66.7) n (%)
Cancer pain, Grade ¾ [3]: 0 n (%)
Decreased appetite, All grades [3]: 3 (100.0) n (%)
Decreased appetite, Grade ¾ [3]: 0 n (%)
Diarrhea, All grades [3]: 3 (100.0) n (%)
Diarrhea, Grade ¾ [3]: 0 n (%)
Dysgeusia, All grades [3]: 1 (33.3) n (%)
Dysgeusia, Grade ¾ [3]: 0 n (%)
Fatigue, All grades [3]: 2 (66.7) n (%)
Fatigue, Grade ¾ [3]: 0 n (%)
Leukopenia, All grades [3]: 1 (33.3) n (%)
Leukopenia, Grade ¾ [3]: 0 n (%)
Lymphopenia, All grades [3]: 1 (33.3) n (%)
Lymphopenia, Grade ¾ [3]: 1 (33.3) n (%)
Nausea, All grades [3]: 1 (33.3) n (%)
Nausea, Grade ¾ [3]: 0 n (%)
Neutropenia, All grades [3]: 1 (33.3) n (%)
Neutropenia, Grade ¾ [3]: 0 n (%)
Pyrexia, All grades [3]: 1 (33.3) n (%)
Pyrexia, Grade ¾ [3]: 0 n (%)
Rash, All grades [3]: 0 n (%)
Rash, Grade ¾ [3]: 0 n (%)
Stomatitis, All grades [3]: 2 (66.7) n (%)
Stomatitis, Grade ¾ [3]: 0 n (%)
Thrombocytopenia, All grades [3]: 1 (33.3) n (%)
Thrombocytopenia, Grade ¾ [3]: 1 (33.3) n (%)
Vomiting, All grades [3]: 1 (33.3) n (%)
Vomiting, Grade ¾ [3]: 0 n (%)
AEs Total, All grades [4]: 8 (100.0) n (%)
AEs Total, Grade ¾ [4]: 4 (50.0) n (%)
Alanine aminotransferase increased, All grades [4]: 0 n (%)
Alanine aminotransferase increased, Grade ¾ [4]: 0 n (%)
